Results from ChEMBL document CHEMBL1155926, “Parallel synthesis and antileishmanial activity of ether-linked phospholipids” (Bioorg Med Chem Lett, 2008).

Legend:
Leishmania donovani [1] = test: Antileishmanial activity against Leishmania donovani axenic amastigotes after 72 hrs by serial dilution method; type: functional, organism-based
Leishmania donovani [2] = test: Antileishmanial activity against Leishmania donovani infected macrophage; type: functional, organism-based

IC50 (Leishmania donovani [1])	IC50 (Leishmania donovani [2])	SMILES
1.3 µM	–	CCCCCCCCCCCCCCCCCCOC(COCc1c(C)noc1C)COP(=O)([O-])OCC[N+](C)(C)C (stereo unspecified)
33.1 µM	–	C[N+](C)(C)CCOP(=O)([O-])OCC(COCn1nnc2ccccc21)OCc1cccc2ccccc12 (stereo unspecified)
> 50 µM	–	Cc1noc(C)c1COCC(COP(=O)([O-])OCC[N+](C)(C)C)Oc1ccccc1 (stereo unspecified)
42.5 µM	–	C=CCOCC(COP(=O)([O-])OCC[N+](C)(C)C)OCCCC (stereo unspecified)
> 50 µM	–	Cc1noc(C)c1COCC(COP(=O)([O-])OCC[N+](C)(C)C)OCc1cccc2ccccc12 (stereo unspecified)
> 50 µM	–	C[N+](C)(C)CCOP(=O)([O-])OCC(COCc1ccccc1)Oc1ccccc1 (stereo unspecified)
> 50 µM	–	CCCCOC(COCc1ccccc1)COP(=O)([O-])OCC[N+](C)(C)C (stereo unspecified)
> 50 µM	–	CCCCOC(COCn1nnc2ccccc21)COP(=O)([O-])OCC[N+](C)(C)C (stereo unspecified)
28.2 µM	–	C[N+](C)(C)CCOP(=O)([O-])OCC(COCn1nnc2ccccc21)Oc1ccccc1 (stereo unspecified)
> 50 µM	–	C[N+](C)(C)CCOP(=O)([O-])OCC(COCn1nnc2ccccc21)OCc1ccccc1 (stereo unspecified)
> 50 µM	–	Cc1noc(C)c1COCC(COP(=O)([O-])OCC[N+](C)(C)C)OCc1ccccc1 (stereo unspecified)
26.7 µM	–	C=CCOCC(COP(=O)([O-])OCC[N+](C)(C)C)OCc1cccc2ccccc12 (stereo unspecified)
13.8 µM	–	C[N+](C)(C)CCOP(=O)([O-])OCC(COCc1ccccc1)OCc1cccc2ccccc12 (stereo unspecified)
> 50 µM	–	CCCCOC(COCc1c(C)noc1C)COP(=O)([O-])OCC[N+](C)(C)C (stereo unspecified)
6.75 µM	–	C=CCOCC(COP(=O)([O-])OCC[N+](C)(C)C)OCCCCCCCCCCCCCCCCCC (stereo unspecified)
1.6 µM	–	CCCCCCCCCCCCCCCCCCOC(COCc1ccccc1)COP(=O)([O-])OCC[N+](C)(C)C (stereo unspecified)
0.66 µM	0.78 µM	CCCCCCCCCCCCCCCCCCOC(COCn1nnc2ccccc21)COP(=O)([O-])OCC[N+](C)(C)C (stereo unspecified)
4.15 µM	–	C[N+](C)(C)CCOP(=O)([O-])OCC(COCc1ccccc1)OCc1ccccc1 (stereo unspecified)
0.22 µM	1.74 µM	CCCCCCCCCCCCCCCCOP(=O)([O-])OCC[N+](C)(C)C [MILTEFOSINE]
